Here are results for three molecules from patent publication US20260021147A1, “COMPOSITIONS AND METHODS FOR TREATING INFLAMMATORY DISEASE” (The Regents of the University of Michigan, priority 2022, published 2026).

The structures appear in SMILES notation.

The test system of series [1] is BT (MDA-JAX BT001) PUL transcripts. In words: RNA sequencing of stool: PUL expression in BT. Type of series: in vivo, Bacteroides thetaiotaomicron. The conditions noted are these: supplementation in meropenem-treated allogeneic mice. As for the experimental part:
Approximately 30 mg of stool was freshly collected in 700 μL of ice cold Qiazol containing 200 μL of 0.1 mm diameter Zirconia Silica beads (11079101z, BioSpec). Samples were bead beaten twice for 2 min with a 30 second interval recovery. Samples were then centrifuged at 12,000 g for 1 min and the supernatant was collected for RNA isolation using the RNeasy mini kit (74104, Qiagen). RNA was treated on column with DNase I (79254, Qiagen) to eliminate contaminating genomic DNA. RNA quantity and quality was determined using an Agilent 4200 TapeStation system (Agilent). 250 ng of total RNA from mouse stools was used to construct libraries using the Nugen Ovation Complete Prokaryotic RNA-Seq Systems (NuGen) or the Universal Prokaryotic RNA-Seq Library Preparation Kit (9367-32, Tecan) with Unique Dual Indexes (S02480-FG, Tecan), following the manufacturer's protocol. The cDNA libraries were sequenced on the Illumina MiSeq or NovaSeq 6000 system to produce either 1×300 bp single-end reads or 2×150 bp paired-end reads. […] The total reads of mouse stool samples were 950923±113406 (mean ±standard deviation) in FIG. 6A and 137623366±38865363 in FIG. 6G-H and 12G. […] Aligned mRNA expression changes were calculated using the Mann-Whitney U test in R software version 3.6.0 via RStudio version 1.2.1335. […]

The test system of series [2] is mouse- and human-derived BT. In words: Bacterial culture of BT with or without monosaccharide. Type of series: cell-based, Bacteroides thetaiotaomicron. The settings on record: carbohydrate-poor media, in vitro. How it is done:
Mouse-derived BT (MDA-JAX BT001), Enterococcus faecalis (MDA-JAX EF001) and Clostridium disporicum (MDA-JAX CD001), Clostridium saudiense (MDA-JAX CS001), and Lachnospiraceae unclassified (MDA-JAX LS001) were isolated and cultured from mouse stool samples suspended in 1 ml of chilled 20% anaerobic glycerol in a Whitley anaerobic chamber (10% H2, 5% CO2 and 85% N2). Human-derived BT (ATCC 29148) was purchased from ATCC. Bacterial number was quantified using a Nexcelom Cellometer cell counter with SYTO™ BC dye and propidium iodide. For measuring MICs against meropenem, bacteria were cultured on BYE plates including 5% sterilized rumen fluid (Fisher Scientific) with MIC test strips (Liofilchem™ MTS™ Meropenem [MRP] 0.016-256 μg/mL, Fisher Scientific). Bacterial growth experiments were performed in a bacterial liquid media, BYEM10, composed of a hybrid of BHI and M10 supplemented with yeast extract (Table 4). Bacteria were cultured up to 48 hours at a starting concentration of 1×10^6 bacteria/ml in BYEM10 broth (pH 7.2) with and without 5 mg/ml of porcine gastric mucin (M1778, Sigma-Aldrich) with or without 0.5 mg/ml of D-(+)-xylose (X3877), D-(+)-mannose (M8574, Sigma-Aldrich) or D-(+)-glucose (G8270). Optical densities (OD600 nm) of bacterial cultures were measured with a BioTek EPOCH 2 plate reader.

Series [3] concerns allogeneic mice (B6D2F1 recipients of B6 donor cells). Put plainly: Murine GvHD model (allo-HSCT): survival and GvHD histology. Type of series: in vivo. The conditions noted are these: for severity of colonic GvHD: antibiotic in drinking water, colon collected day 20, vs control allogeneic mice. As for the experimental part:
In a murine model with a mucin-deficient mutate strain of BT, piperacillin/tazobactam was given at a concentration of 3.2 g/L in combination with vancomycin and metronidazole dosed 1.5 mg daily by oral gavage from days −16 to −12 relative to transplant.
D-(+)-xylose (X3877, Sigma-Aldrich) or D-(+)-glucose (G8270, Sigma-Aldrich) was dissolved in phosphate buffer pH 8.0 with meropenem or in water without meropenem and given at a concentration of 0.5% from days 13 to 28 after allo-HSCT.
Mice were transplanted as previously described (Hayase et al., 2017).
(§1) Pathology scores were quantified by a blinded pathologist. […] Sections were imaged using an Aperio AT2.

The next series relates to colonic mucus layer. Put plainly: Colonic mucus thickness by PAS staining. The conditions noted are these: meropenem-treated allogeneic mice (FIG. 6, FIG. 12 titles). It is filed as in vivo, mice.
Text: as §1

The subject of another series is intestinal microbiota. Put plainly: 16S rRNA sequencing of fecal and mucosal microbiome in mice. It is filed as in vivo. As for the experimental part:
Fecal samples which were collected from patients and mice and colonic mucosal samples, which were collected from mice were weighed before DNA isolation. […] The quality and quantity of the barcoded amplicons were assessed on an Agilent 4200 TapeStation system (Agilent) and Qubit Fluorometer (Thermo Fisher Scientific), and libraries were prepared after pooling at equimolar ratios. The final libraries were purified using QIAquick gel extraction kit (28706X4, Qiagen) and sequenced with a 2×250 base pair paired-end protocol on the Illumina MiSeq platform.
For differential abundance analysis, abundances of sequences belonging to taxonomical groups were included for analysis using the Mann-Whitney U test and adjusted for multiple comparisons using the method of Benjamini-Hochberg. Paired samples were analyzed using the Wilcoxon signed rank test with adjustment for multiple comparisons.

Series [4] is described as follows: Short chain fatty acids profiling of mouse feces by IC-MS. Type of series: in vivo, mice. The conditions noted are these: allogeneic mice, day 20. As for the experimental part: To determine the relative abundance of short chain fatty acids in mouse feces samples, extracts were prepared and analyzed by ultra-high resolution mass spectrometry (HRMS). Fecal pellets were homogenized with a Precellys Tissue Homogenizer. Metabolites were extracted using 1 mL ice-cold 0.1% Ammonium hydroxide in 80/20 (v/v) methanol/water. Extracts were centrifuged at 17,000 g for 5 min at 4° C., and supernatants were transferred to clean tubes, followed by evaporation to dryness under nitrogen. Dried extracts were reconstituted in deionized water, and 5 μL was injected for analysis by IC-MS. IC mobile phase A (MPA; weak) was water, and mobile phase B (MPB; strong) was water containing 100 mM KOH. A Thermo Scientific Dionex ICS-5000+ system included a Thermo IonPac AS11 column (4 μm particle size, 250×2 mm) with column compartment kept at 30° C. The autosampler tray was chilled to 4° C. The mobile phase flow rate was 360 μL/min, and the gradient elution program was: 0-5 min, 1% MPB; 5-25 min, 1-35% MPB; 25-39 min, 35-99% MPB; 39-49 min, 99% MPB; 49-50, 99-1% MPB. The total run time was 50 min. To assist the desolvation for better sensitivity, methanol was delivered by an external pump and combined with the eluent via a low dead volume mixing tee. Data were acquired using a Thermo Orbitrap Fusion Tribrid Mass Spectrometer under ESI negative ionization mode at a resolution of 240,000. […]

As to `O=C[C@H](O)[C@@H](O)[C@H](O)CO` [xylose, D-(+)-xylose], the “expression of ORF GH2_PUL89_16” value in series [1] was “significantly downregulated”. In series [2], the “growth of mouse- and human-derived BT” value is on record as “augmented”. The overall survival entry in series [3] (0.5% xylose days 13 to 28, meropenem-treated allogeneic mice) is given as “significantly improved the survival”. The “mucolytic activity / mucus-degrading function of BT” value with colonic mucus layer is listed as “suppressed”.

With `CO/N=C(\C(=O)N[C@@H]1C(=O)N2C(C(=O)[O-])=C(C[N+]3(C)CCCC3)CS[C@H]12)c1csc(N)n1` [cefepime], the “abundances of BT” value with intestinal microbiota (day 20, compared to meropenem-treated mice) was “significantly lower abundances of BT”. Further, the “compositional differences between luminal and mucosal samples” value in the series with intestinal microbiota (treated allogeneic mice, PERMANOVA testing) is “loss of compositional differences”. Besides, the “severity of colonic GvHD” value in series [3] was “do not increase the severity of colonic GvHD”. Besides, the “fecal levels of SCFAs” value in series [4] was “did not show substantially reduced fecal levels of SCFAs”.

`C[C@H]1COc2c(N3CCN(C)CC3)c(F)cc3c(=O)c(C(=O)O)cn1c23` [levofloxacin]: the “severity of colonic GvHD” value in series [3] is on record as “do not increase the severity of colonic GvHD”.
